Data published in patent US7598417B2, “Substituted fluoroethyl ureas as alpha 2 adrenergic agents” (Allergan, Inc., priority 2007, dated 2009).

Each molecule was assayed against T1, alpha2A receptor (Homo sapiens, UniProt P08913) (assay: Receptor Selection and Amplification Technology (RSAT) assay, alpha2A). Details: RSAT, NIH-3T3 cells cotransfected with receptor and Gq/i5; not active = not active at concentrations less than 10 micromolar; read-out: Alpha 2A EC50.
T1 construct: expressed in transfected cells; host or cells: NIH-3T3
T1 sequence (P08913 1-465): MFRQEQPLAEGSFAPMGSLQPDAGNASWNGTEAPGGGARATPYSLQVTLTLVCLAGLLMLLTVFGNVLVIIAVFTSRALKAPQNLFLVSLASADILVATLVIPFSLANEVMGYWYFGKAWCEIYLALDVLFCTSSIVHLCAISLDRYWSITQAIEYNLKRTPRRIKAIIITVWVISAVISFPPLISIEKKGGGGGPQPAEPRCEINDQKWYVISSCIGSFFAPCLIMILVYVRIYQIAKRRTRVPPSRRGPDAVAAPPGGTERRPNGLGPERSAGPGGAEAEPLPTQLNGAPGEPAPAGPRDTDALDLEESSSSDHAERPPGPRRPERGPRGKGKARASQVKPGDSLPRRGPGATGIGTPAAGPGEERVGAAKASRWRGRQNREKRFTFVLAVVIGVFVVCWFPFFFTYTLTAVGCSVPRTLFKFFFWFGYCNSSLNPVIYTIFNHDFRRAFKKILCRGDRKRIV
Format: cell-based
In short: (§1)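 NIH-3T3 cells cotransfected with receptor, Gq/i5 and β-galactosidase, incubated with drug 72-96 h at 37° C; proliferation read as β-gal activity (o-nitrophenyl-β-D-galactopyranoside, OD420).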

Compound | EC50 [nM]
COc1cccc2c1CCC2NC(=O)NCCF (stereo not drawn) | 2070
COc1cccc2c1C(NC(=O)NCCF)CC2 (stereo not drawn) | 277
Cc1cccc2c1C(NC(=O)NCCF)CC2 (stereo not drawn) | 189
O=C(NCCF)N[C@@H]1CCc2ccccc21 | 693
CC1=C(C)C(NC(=O)NCCF)CC1 (stereo not drawn) | 586
O=C(NCCF)NC1CCc2ccc(Cl)cc21 (stereo not drawn) | 343
O=C(NCCF)NC1CCc2c(Cl)cccc21 (stereo not drawn) | 34.9
O=C(NCCF)NC1CCc2c(Br)cccc21 (stereo not drawn) | 64.6
O=C(NCCF)NC1CCc2c(F)cccc21 (stereo not drawn) | 130
O=C(NCCF)NC1CCCc2c(Cl)cccc21 (stereo not drawn) | 168
Cc1cccc2c1CCCC2NC(=O)NCCF (stereo not drawn) | 48
O=C(NCCF)NC1CCCc2c(Br)cccc21 (stereo not drawn) | 146
O=C(NCCF)NC1CCCc2c(F)cccc21 (stereo not drawn) | 68.3

Same assay, conditions: ratio of maximal effect of the drug to maximal effect of standard full agonist brimonidine (UK14304)

Compound | Alpha 2A IA (intrinsic activity)
COc1cccc2c1CCC2NC(=O)NCCF (stereo not drawn) | 0.48
COc1cccc2c1C(NC(=O)NCCF)CC2 (stereo not drawn) | 0.48
Cc1cccc2c1C(NC(=O)NCCF)CC2 (stereo not drawn) | 0.43
O=C(NCCF)N[C@@H]1CCc2ccccc21 | 0.36
CC1=C(C)C(NC(=O)NCCF)CC1 (stereo not drawn) | 0.36
O=C(NCCF)NC1CCc2ccc(Cl)cc21 (stereo not drawn) | 0.63
O=C(NCCF)NC1CCc2c(Cl)cccc21 (stereo not drawn) | 1.05
O=C(NCCF)NC1CCc2c(Br)cccc21 (stereo not drawn) | 0.97
O=C(NCCF)NC1CCc2c(F)cccc21 (stereo not drawn) | 0.76
O=C(NCCF)NC1CCCc2c(Cl)cccc21 (stereo not drawn) | 0.42
Cc1cccc2c1CCCC2NC(=O)NCCF (stereo not drawn) | 0.41
O=C(NCCF)NC1CCCc2c(Br)cccc21 (stereo not drawn) | 0.41
O=C(NCCF)NC1CCCc2c(F)cccc21 (stereo not drawn) | 0.52

These molecules were tested against T2, alpha2B receptor (Homo sapiens, UniProt P18089) (assay: Receptor Selection and Amplification Technology (RSAT) assay, alpha2B). Details: RSAT, NIH-3T3 cells cotransfected with receptor and Gq/i5; not active = not active at concentrations less than 10 micromolar; read-out: Alpha 2B EC50.
T2 construct: expressed in transfected cells; host or cells: NIH-3T3
T2 sequence (P18089 1-450): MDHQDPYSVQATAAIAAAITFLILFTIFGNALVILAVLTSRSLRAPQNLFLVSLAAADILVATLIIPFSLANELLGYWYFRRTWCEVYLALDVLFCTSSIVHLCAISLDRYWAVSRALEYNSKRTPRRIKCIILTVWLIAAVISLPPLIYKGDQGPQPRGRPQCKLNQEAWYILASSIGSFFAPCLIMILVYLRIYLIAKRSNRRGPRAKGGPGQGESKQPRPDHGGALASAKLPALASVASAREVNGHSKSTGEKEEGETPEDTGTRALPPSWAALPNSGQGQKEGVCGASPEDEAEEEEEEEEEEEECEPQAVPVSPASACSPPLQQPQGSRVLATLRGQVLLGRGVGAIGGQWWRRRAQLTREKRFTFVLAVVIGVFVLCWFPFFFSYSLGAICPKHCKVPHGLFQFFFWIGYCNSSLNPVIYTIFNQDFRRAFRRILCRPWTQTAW
Format: cell-based
In short: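 NIH-3T3 cells cotransfected with β-galactosidase marker, human alpha2B receptor and Gq/i5 chimera, then exposed to drug in triplicate for 72-96 h at 37 °C. Proliferation read as β-galactosidase activity (o-nitrophenyl-β-D-galactopyranoside, overnight 30 °C, OD 420 nm). Intrinsic activity relative to brimonidine maximum; EC50 at half-maximal effect.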

Compound | EC50 [nM]
COc1cccc2c1CCC2NC(=O)NCCF (stereo not drawn) | 121
COc1cccc2c1C(NC(=O)NCCF)CC2 (stereo not drawn) | 544
Cc1cccc2c1C(NC(=O)NCCF)CC2 (stereo not drawn) | 26.8
O=C(NCCF)N[C@@H]1CCc2ccccc21 | 565
CC1=C(C)C(NC(=O)NCCF)CC1 (stereo not drawn) | 37
O=C(NCCF)NC1CCc2ccc(Cl)cc21 (stereo not drawn) | 12
O=C(NCCF)NC1CCc2c(Cl)cccc21 (stereo not drawn) | 2.5
O=C(NCCF)NC1CCc2c(Br)cccc21 (stereo not drawn) | 2.7
O=C(NCCF)NC1CCc2c(F)cccc21 (stereo not drawn) | 1.8
O=C(NCCF)NC1CCCc2c(Cl)cccc21 (stereo not drawn) | 29
Cc1cccc2c1CCCC2NC(=O)NCCF (stereo not drawn) | 5.6
O=C(NCCF)NC1CCCc2c(Br)cccc21 (stereo not drawn) | 20.3
O=C(NCCF)NC1CCCc2c(F)cccc21 (stereo not drawn) | 8.2

Same assay, conditions: ratio of maximal effect of the drug to maximal effect of standard full agonist brimonidine (UK14304)

Compound | Alpha 2B IA (intrinsic activity)
COc1cccc2c1CCC2NC(=O)NCCF (stereo not drawn) | 0.72
COc1cccc2c1C(NC(=O)NCCF)CC2 (stereo not drawn) | 0.63
Cc1cccc2c1C(NC(=O)NCCF)CC2 (stereo not drawn) | 0.6
O=C(NCCF)N[C@@H]1CCc2ccccc21 | 0.55
CC1=C(C)C(NC(=O)NCCF)CC1 (stereo not drawn) | 1.07
O=C(NCCF)NC1CCc2ccc(Cl)cc21 (stereo not drawn) | 0.99
O=C(NCCF)NC1CCc2c(Cl)cccc21 (stereo not drawn) | 1.03
O=C(NCCF)NC1CCc2c(Br)cccc21 (stereo not drawn) | 1.06
O=C(NCCF)NC1CCc2c(F)cccc21 (stereo not drawn) | 1.05
O=C(NCCF)NC1CCCc2c(Cl)cccc21 (stereo not drawn) | 1.11
Cc1cccc2c1CCCC2NC(=O)NCCF (stereo not drawn) | 1.3
O=C(NCCF)NC1CCCc2c(Br)cccc21 (stereo not drawn) | 0.91
O=C(NCCF)NC1CCCc2c(F)cccc21 (stereo not drawn) | 1.03

What follows are molecules tested against T3, alpha2C receptor (Homo sapiens, UniProt P18825) (assay: Receptor Selection and Amplification Technology (RSAT) assay, alpha2C). Details: RSAT, NIH-3T3 cells cotransfected with receptor and Gq/i5; not active = not active at concentrations less than 10 micromolar; read-out: Alpha 2C EC50.
T3 construct: expressed in transfected cells; host or cells: NIH-3T3
T3 sequence (P18825 1-462): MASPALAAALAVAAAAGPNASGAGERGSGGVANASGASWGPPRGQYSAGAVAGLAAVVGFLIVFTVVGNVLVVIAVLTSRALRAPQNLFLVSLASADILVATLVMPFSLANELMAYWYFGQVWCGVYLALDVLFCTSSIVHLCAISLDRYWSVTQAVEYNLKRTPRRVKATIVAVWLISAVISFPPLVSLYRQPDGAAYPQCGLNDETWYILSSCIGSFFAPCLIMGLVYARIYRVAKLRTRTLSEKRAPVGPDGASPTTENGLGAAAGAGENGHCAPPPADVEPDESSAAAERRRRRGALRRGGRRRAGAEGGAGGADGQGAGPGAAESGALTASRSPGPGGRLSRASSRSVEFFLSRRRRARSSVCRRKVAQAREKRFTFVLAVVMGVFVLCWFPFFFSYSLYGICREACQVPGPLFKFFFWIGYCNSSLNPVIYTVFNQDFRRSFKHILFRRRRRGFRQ
Format: cell-based
In short: as §1

Compound | EC50 [nM]
COc1cccc2c1CCC2NC(=O)NCCF (stereo not drawn) | 1110
COc1cccc2c1C(NC(=O)NCCF)CC2 (stereo not drawn) | 972
Cc1cccc2c1C(NC(=O)NCCF)CC2 (stereo not drawn) | 197
O=C(NCCF)N[C@@H]1CCc2ccccc21 | 1820
CC1=C(C)C(NC(=O)NCCF)CC1 (stereo not drawn) | 214
O=C(NCCF)NC1CCc2ccc(Cl)cc21 (stereo not drawn) | 86
O=C(NCCF)NC1CCc2c(Cl)cccc21 (stereo not drawn) | 116
O=C(NCCF)NC1CCc2c(Br)cccc21 (stereo not drawn) | 103
O=C(NCCF)NC1CCc2c(F)cccc21 (stereo not drawn) | 107
O=C(NCCF)NC1CCCc2c(Cl)cccc21 (stereo not drawn) | 310
Cc1cccc2c1CCCC2NC(=O)NCCF (stereo not drawn) | 123
O=C(NCCF)NC1CCCc2c(Br)cccc21 (stereo not drawn) | 204
O=C(NCCF)NC1CCCc2c(F)cccc21 (stereo not drawn) | 107

Same assay, conditions: ratio of maximal effect of the drug to maximal effect of standard full agonist brimonidine (UK14304)

Compound | Alpha 2C IA (intrinsic activity)
COc1cccc2c1CCC2NC(=O)NCCF (stereo not drawn) | 0.59
COc1cccc2c1C(NC(=O)NCCF)CC2 (stereo not drawn) | 0.54
Cc1cccc2c1C(NC(=O)NCCF)CC2 (stereo not drawn) | 0.62
O=C(NCCF)N[C@@H]1CCc2ccccc21 | 0.61
CC1=C(C)C(NC(=O)NCCF)CC1 (stereo not drawn) | 0.64
O=C(NCCF)NC1CCc2ccc(Cl)cc21 (stereo not drawn) | 0.7
O=C(NCCF)NC1CCc2c(Cl)cccc21 (stereo not drawn) | 1.1
O=C(NCCF)NC1CCc2c(Br)cccc21 (stereo not drawn) | 0.7
O=C(NCCF)NC1CCc2c(F)cccc21 (stereo not drawn) | 0.68
O=C(NCCF)NC1CCCc2c(Cl)cccc21 (stereo not drawn) | 0.72
Cc1cccc2c1CCCC2NC(=O)NCCF (stereo not drawn) | 1.03
O=C(NCCF)NC1CCCc2c(Br)cccc21 (stereo not drawn) | 0.53
O=C(NCCF)NC1CCCc2c(F)cccc21 (stereo not drawn) | 0.76
